The values that follow come from patent US20240180822A1, “NON-NANOPARTICULATE APPLICATION FORMS OF MACROLIDES” (Nucleus Medical GmbH, priority 2021, published 2024).

A short description of this series: saturation solubility of tacrolimus in different solvents (HPLC in the supernatant). It counts as physicochemical. Particulars: all tested organic solvents. The method, then: Tacrolimus was dissolved in an organic solvent. Particularly, the saturation solubility of tacrolimus in different organic solvents was tested. Crystalline active ingredient was added to a defined amount of solvent at room temperature while stirring until an insoluble sediment was formed. After filtration, the concentration of active ingredient was quantified by HPLC in the supernatant.

In the case of `C=CC[C@@H]1/C=C(\C)C[C@H](C)C[C@H](OC)[C@H]2O[C@@](O)(C(=O)C(=O)N3CCCC[C@H]3C(=O)O[C@H](/C(C)=C/[C@@H]3CC[C@@H](O)[C@H](OC)C3)[C@H](C)[C@@H](O)CC1=O)[C@H](C)C[C@@H]2OC` [Tacrolimus], the “solubility in organic solvents” value is given as “soluble in all tested organic solvents”.
